Test results: the NIST ThermoML archive (doi:10.1021/je200830j)
Numbers after ± are expanded uncertainties.

Columns and labels:
[1] = xn = mol fraction of the nth substance listed; details: 101 kPa, Liquid, Capillary tube (Ostwald / Ubbelohde) method
[2] = 101.33 kPa, Liquid; for mass density: Vibrating tube method; for viscosity: Vibrating wire viscometry

CCCCCCCCCCCCCC[P+](CCCCCC)(CCCCCC)CCCCCC.N#C[N-]C#N [tetradecyl(trihexyl)phosphonium dicyanamide] + O
viscosity ([1]; 298.17 K, x2 = 0.275): 372.8 ± 19 mPa·s | viscosity ([1]; 298.17 K, x2 = 0.4): 362.7 ± 21 mPa·s | viscosity ([1]; 303.11 K, x2 = 0.198): 284.53 ± 14 mPa·s | viscosity ([1]; 303.13 K, x2 = 0.275): 282.44 ± 14 mPa·s | viscosity ([1]; 308.09 K, x2 = 0.275): 217.15 ± 10 mPa·s | viscosity ([1]; 317.92 K, x2 = 0.198): 135.23 ± 6 mPa·s

CCCCCCCCCCCCCC[P+](CCCCCC)(CCCCCC)CCCCCC.N#C[N-]C#N [tetradecyl(trihexyl)phosphonium dicyanamide]
mass density ([2]; 290.66 K): 902.3 ± 1.9 kg/m3 | viscosity ([2]; 293.14 K): 505.9 ± 28 mPa·s | mass density ([2]; 293.15 K): 900.9 ± 1.9 kg/m3 | mass density ([2]; 293.16 K): 900.9 ± 1.9 kg/m3 | mass density ([2]; 295.65 K): 899.5 ± 1.9 kg/m3 | mass density ([2]; 295.66 K): 899.5 ± 1.9 kg/m3 | mass density ([2]; 298.15 K): 898 ± 1.9 kg/m3 | mass density ([2]; 298.16 K): 898 ± 1.9 kg/m3 | viscosity ([2]; 298.2 K): 378 ± 20 mPa·s | mass density ([2]; 300.65 K): 896.6 ± 1.9 kg/m3 | mass density ([2]; 300.66 K): 896.6 ± 1.9 kg/m3 | mass density ([2]; 303.15 K): 895.1 ± 1.9 kg/m3 | mass density ([2]; 303.16 K): 895.1 ± 1.9 kg/m3 | viscosity ([2]; 303.18 K): 288 ± 14 mPa·s | mass density ([2]; 305.65 K): 893.7 ± 1.9 kg/m3 | mass density ([2]; 308.15 K): 892.3 ± 1.9 kg/m3 | mass density ([2]; 308.16 K): 892.3 ± 1.9 kg/m3 | viscosity ([2]; 308.2 K): 219.9 ± 10 mPa·s | mass density ([2]; 310.65 K): 890.9 ± 1.9 kg/m3 | mass density ([2]; 310.66 K): 890.9 ± 1.9 kg/m3 | mass density ([2]; 313.15 K): 889.5 ± 1.9 kg/m3 | mass density ([2]; 313.16 K): 889.5 ± 1.9 kg/m3 | viscosity ([2]; 313.18 K): 171.1 ± 7.8 mPa·s | mass density ([2]; 315.65 K): 888.1 ± 1.9 kg/m3 | mass density ([2]; 318.15 K): 886.7 ± 1.9 kg/m3 | viscosity ([2]; 318.19 K): 134.4 ± 6 mPa·s | mass density ([2]; 320.65 K): 885.3 ± 1.9 kg/m3
